Where a name gives a salt, the structure may show the parent alone. Read-outs that look alike come from different tables or passages of the source.

The text below walks through data of patent US4686220A, “Substituted 2-[b-substituted-amino)-ethylamino]-1,4-naphthalenediones for treating asthma, allergic diseases and inflammation in warm-blooded animals” (American Cyanamid Company, priority 1985, dated 1987).

For the assay, the target named is T1, Neutrophil Lipoxygenase (Cavia porcellus, UniProt A0A286X958).
T1 construct: endogenous in cells; host or cells: guinea pig peritoneal neutrophils
T1 sequence (A0A286X958 1-674): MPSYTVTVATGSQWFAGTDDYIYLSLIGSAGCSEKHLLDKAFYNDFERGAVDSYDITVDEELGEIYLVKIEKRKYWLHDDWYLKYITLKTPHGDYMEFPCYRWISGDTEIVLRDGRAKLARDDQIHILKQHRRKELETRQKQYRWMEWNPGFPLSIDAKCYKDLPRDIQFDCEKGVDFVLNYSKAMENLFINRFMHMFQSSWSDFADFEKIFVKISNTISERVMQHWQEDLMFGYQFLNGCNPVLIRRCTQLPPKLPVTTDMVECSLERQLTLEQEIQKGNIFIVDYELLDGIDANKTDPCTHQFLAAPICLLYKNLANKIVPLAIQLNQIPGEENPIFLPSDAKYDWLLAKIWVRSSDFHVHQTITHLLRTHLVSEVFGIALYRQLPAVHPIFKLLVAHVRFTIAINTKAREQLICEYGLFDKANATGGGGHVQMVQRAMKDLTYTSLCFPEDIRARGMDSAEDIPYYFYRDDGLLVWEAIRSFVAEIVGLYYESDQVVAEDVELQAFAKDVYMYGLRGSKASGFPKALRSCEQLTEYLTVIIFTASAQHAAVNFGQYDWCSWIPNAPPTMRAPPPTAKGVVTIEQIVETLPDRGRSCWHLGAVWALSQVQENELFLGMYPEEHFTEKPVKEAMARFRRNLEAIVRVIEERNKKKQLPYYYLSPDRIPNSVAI
The experiment in a line: Inhibition of Neutrophil Lipoxygenase from Immunologically Stimulated Guinea Pig Neutrophiles (LTB4 and 5-HETE). It counts as cell-based. To be noted: 10 μg/ml, 100 μM arachidonic acid and 20 μM A23187, the lower the percentage, the more active. The protocol:
In this assay 3×10^7 peritoneal neutrophils derived from guinea pigs were incubated at 37° C. in Dulbeccos buffer containing 50 mM tris buffer (pH 7.4). Five minutes before the addition of 100 μM arachidonic acid and 20 μM calcium ionophore (A23187), control vehicle or the test compounds were added to the neutrophils at a concentration of 10 μg/ml. Three minutes after the addition of arachidonic acid and calcium ionophore the total lipid was partitioned into chloroform after adjusting the pH to 3 with citric acid and the addition of equal parts of methanol and chloroform. The 5-HETE and LTB4 were resolved by HPLC using a 5 μM, 4×25 cm octadecyl silica column (IBM Instruments) with 70-80% methanol in water adjusted to pH 3.0 with acetic acid. As the mobile phase was pumped at 1.0 ml/minute, LTB4 and 5-HETE were detected by absorbance at 270 and 236 nm, respectively. LTB4 and 5-HETE were quantitated by comparison with the control and the results were expressed as a percent of control.

For `CC(=O)NC1=C(N2CCN(c3cccc(C(F)(F)F)c3)CC2)C(=O)c2ccccc2C1=O` [Example 28, N-[1,4-dihydro-1,4-dioxo-3-[4-[3-(trifluoromethyl)phenyl]-1-piperazinyl]-2-naphthalenyl]acetamide], where the note is “read-out: 5-HETE, % of Control”, the remaining activity at 10 µg/mL was 0.3%.
Take `O=C1C(Cl)=C(N2CCN(c3nc4ccccc4o3)CC2)C(=O)c2ccccc21` [Example 55, 2-[4-(2-Benzoxazolyl)-1-piperazinyl]-3-chloro-1,4-naphthalenedione]: the remaining activity at 10 µg/mL (read-out: 5-HETE, % of Control) was 19.6% and the remaining activity at 10 µg/mL (read-out: LTB4, % of Control) was determined as 13.5%.
On to `O=C1C(Cl)=C(N2CCCN(c3nc4ccccc4s3)CC2)C(=O)c2ccccc21` [Example 52, 2-[4-(2-Benzothiazolyl)hexahydro-1H-diazepin-1-yl]-3-chloro-1,4-naphthalenedione], for which, for the setting “read-out: 5-HETE, % of Control”, the remaining activity at 10 µg/mL was determined as 1.1%.
Turning to `O=C1C(Cl)=C(N2CCN(C(=O)Nc3ccccc3Cl)CC2)C(=O)c2ccccc21` [Example 29, 4-(3-Chloro-1,4-dihydro-1,4-dioxo-2-naphthalenyl)-N-(2-chlorophenyl)-1-piperazinecarboxamide], the remaining activity at 10 µg/mL was found to be 19.9% (read-out: 5-HETE, % of Control) and 22.2% (read-out: LTB4, % of Control).
For the compound `O=C1C(Cl)=C(N2CCN(c3ncccn3)CC2)C(=O)c2ccccc21` [Example 12, 2-chloro-3-[4-(2-pyrimidinyl)-1-piperazinyl]-1,4-naphthalenedione], the remaining activity at 10 µg/mL (read-out: 5-HETE, % of Control) came out at 34.3%.
For `CC1=C(N2CCN(c3nc4ccccc4s3)CC2)C(=O)c2ccccc2C1=O` [Example 42, 2-[4-(2-benzothiazolyl)-1-piperazinyl]-3-methyl-1,4-naphthalenedione], the remaining activity at 10 µg/mL by setting is: (read-out: 5-HETE, % of Control) 0.8%; (read-out: LTB4, % of Control) 20.8%.
On to `CC1CN(C2=C(Cl)C(=O)c3ccccc3C2=O)CCN1C(=O)Nc1cccc(Cl)c1` (stereo not drawn) [Example 58, 4-(3-Chloro-1,4-dihydro-1,4-dioxo-2-naphthalenyl)-N-(3-chlorophenyl)-2-methyl-1-piperazinecarboxamide], for which the remaining activity at 10 µg/mL runs as follows: (read-out: 5-HETE, % of Control) 25.7%; (read-out: LTB4, % of Control) 15.2%.
The corresponding values for `CCCCc1ccc(C(=O)N2CCN(C3=C(Cl)C(=O)c4ccccc4C3=O)CC2)cc1` [Example 35, 1-(4-butylbenzoyl)-4-(3-chloro-1,4-dihydro-1,4-dioxo-2-naphthalenyl)piperazine] are 13.7% and 23.2%.
In the same order, the values of `O=C1C(Cl)=C(N2CCN(Cc3ccc4c(c3)OCO4)CC2)C(=O)c2ccccc21` [Example 11, 2-[4-(1,3-benzodioxol-5-ylmethyl)-1-piperazinyl]-3-chloro-1,4-naphthalenedione, hydrochloride] are 0% and 0%.
Take `CC1=C(N2CCN(C(=O)Nc3ccc(Cl)cc3)CC2)C(=O)c2ccccc2C1=O` [Example 54, N-(4-Chlorophenyl)-4-(1,4-dihydro-3-methyl-1,4-dioxo-2-naphthalenyl)-1-piperazinecarboxamide]: for the setting “read-out: 5-HETE, % of Control”, the remaining activity at 10 µg/mL came to 8.8%.
Take `O=C1C(Cl)=C(N2CCN(C(=O)Nc3ccccc3F)CC2)C(=O)c2ccccc21` [Example 30, 4-(3-chloro-1,4-dihydro-1,4-dioxo-2-naphthalenyl)-N-(2-fluorophenyl)-1-piperazinecarboxamide]: the remaining activity at 10 µg/mL runs as follows: (read-out: 5-HETE, % of Control) 2%; (read-out: LTB4, % of Control) 0%.
Consider `CC1=C(N2CCN(Cc3ccccc3)CC2)C(=O)c2ccccc2C1=O` [Example 43, 2-methyl-3-[4-(phenylmethyl)-1-piperazinyl]-1,4-naphthalenedione], for which the remaining activity at 10 µg/mL (read-out: 5-HETE, % of Control) was 0.7% and the remaining activity at 10 µg/mL (read-out: LTB4, % of Control) was found to be 4.8%.
In the same order, the values of `CC1=C(N2CCN(c3ccccn3)CC2)C(=O)c2ccccc2C1=O` [Example 44, 2-methyl-3-[4-(2-pyridinyl)-1-piperazinyl]-1,4-naphthalenedione] are 0% and 0%.
The corresponding values for `O=C1C(Cl)=C(N2CCN(c3ccc4ccccc4n3)CC2)C(=O)c2ccccc21` [Example 10, 2-chloro-3-[4-(2-quinolinyl)-1-piperazinyl]-1,4-naphthalenedione, hydrochloride] are 0% and 0%.
Consider `CC1=C(N2CCN(c3cccc(C(F)(F)F)c3)CC2)C(=O)c2ccccc2C1=O` [Example 45, 2-methyl-3-[4-[3-(trifluoromethyl)phenyl]-1-piperazinyl]-1,4-naphthalenedione], for which the remaining activity at 10 µg/mL (read-out: 5-HETE, % of Control) amounted to 0%.
Still for that read-out and setting: with `O=C1C(Cl)=C(N2CCN(C(=O)Nc3ccc(Cl)cc3)CC2)C(=O)c2ccccc21` [Example 32, 4-(3-chloro-1,4-dihydro-1,4-dioxo-2-naphthalenyl)-N-(4-chlorophenyl)-1-piperazinecarboxamide] the figure was 1.4%.
In the case of `CC(=O)NC1=C(N2CCN(c3nc4ccccc4s3)CC2)C(=O)c2ccccc2C1=O` [Example 23, N-[3-[4-(2-benzothiazolyl)-1-piperazinyl]-1,4-dihydro-1,4-dioxo-2-naphthalenyl]acetamide], the remaining activity at 10 µg/mL runs as follows: (read-out: 5-HETE, % of Control) 0%; (read-out: LTB4, % of Control) 0%.
As to `O=C1C(Cl)=C(N2CCN(C(=O)Nc3cccc(C(F)(F)F)c3)CC2)C(=O)c2ccccc21` [Example 31, 4-(3-chloro-1,4-dihydro-1,4-dioxo-2-naphthalenyl)-N-[3-(trifluoromethyl)phenyl]-1-piperazinecarboxamide], the remaining activity at 10 µg/mL (read-out: 5-HETE, % of Control) worked out at 0%.
Same read-out and setting: with `CCOC(=O)N1CCN(C2=C(C)C(=O)c3ccccc3C2=O)CC1` [Example 41, 4-(1,4-Dihydro-3-methyl-1,4-dioxo-2-naphthalenyl)-1-piperazinecarboxylic acid, ethyl ester] the figure was 2.2%.
